Marks after values point to notes of the source that are not given here.
Columns and labels:
[1] = parameters: species or system human (healthy subjects); details: human, in vivo
Protocol: For this reason, in Study HDP-CDV-201, HDP-CDV was administered to fasted subjects. […] For this reason, in future studies, HDP-CDV may be administered with a food whenever possible.
However, the clinical significance of these findings is currently unknown and anecdotal reports indicate that gastrointestinal symptoms during HDP-CDV therapy may be mitigated by administration of HDP-CDV with food. […] In Study HDP-CDV-301, HDP-CDV is dosed with food; there is no restriction on the amount or type of food eaten. Therefore, evidence of the effectiveness of HDP-CDV is established in Study […] in subjects who receive HDP-CDV in the fed state.

[2] = Study HDP-CDV-106: safety and PK in subjects with impaired hepatic function; assay type: in vivo, human
Protocol: Subjects with moderate hepatic impairment and matched healthy control subjects with normal hepatic function were enrolled and dosed first in Cohort 1, each receiving a single 200 mg dose of HDP-CDV under fasting conditions. The safety, tolerability and PK data from these subjects was reviewed prior to initiating dosing in subjects with severe hepatic impairment in Cohort 2. The study was conducted at four centers in the USA. Up to approximately 24 male and female subjects were planned to be enrolled in this study, including 8 subjects with moderate hepatic impairment and 8 matched healthy control subjects in Cohort 1 and 8 subjects with severe hepatic impairment in Cohort 2. The severity of hepatic impairment was assessed according to the Child-Pugh-Turcotte (CPT) score. Assessments are as follows: CPT Class B (moderate impairment) has a score of 7 to 9 points; and Class C (severe impairment) has a score of >9 points. For the purposes of this study, Cohort 2 subjects were required to have a CPT score of 10 or 11.

[3] = cynomolgus monkey, in vivo
[4] = test system: human liver microsomes and recombinant human CYP enzymes; experiment: Study HDP-CDV-NCA-049: in vitro CYP reaction phenotyping, liver microsomes; assay type: in vitro ADME; details: liver microsomes from multiple species, previous studies
Source text: This study is expected to definitively quantify the major human metabolites arising from specific CYP enzymes and inform the need for a clinical DDI study investigating the effect of inhibition of these CYP enzymes on the PK of HDP-CDV.

[5] = test system: HHV-6(B); experiment: In vitro antiviral activity in cell culture, HHV-6(B); assay type: cell-based, human herpesvirus 6; details: Human betaherpesvirus 6, B-cell
[6] = Study HDP-CDV-350: safety, adverse events and disposition; assay type: in vivo, human (allogeneic HCT recipients)
Protocol: Subjects underwent extensive safety monitoring, including routine safety laboratory assessments, physical examination, and vital sign measurements at regular intervals. In addition, subjects were monitored for viral DNA burden in plasma (DNAemia) and other affected compartments (e.g., urine, stool, CSF, etc.). Assessments were performed weekly for the first month, every 1 or 2 weeks for the next 2 months, and monthly thereafter for as long as treatment was continued. Subjects were monitored for adverse events (AEs) and for selected concomitant medication throughout the entire study, including the 1 month posttreatment follow-up period.
Given that subjects had to have a serious or life-threatening disease and/or to have failed other available treatment options in order to qualify for this study, there was an expected high frequency of AEs in the study population overall. With the exception of diarrhea, with or without associated GI signs and symptoms, the vast majority of AEs were attributed to the underlying conditions of the subjects and not to HDP-CDV administration.

[7] = in vivo
[8] = test system: VZV; experiment: In vitro antiviral activity in cell culture, VZV; assay type: cell-based, varicella-zoster virus; details: Human alphaherpesvirus 3
[9] = Study HDP-CDV-201 post hoc analysis of preemptive therapy with anti-CMV STOC during follow-up; assay type: in vivo, human (HCT recipients)
Protocol: Subjects who developed CMV infection or disease at any time during the up to 11-week treatment period (through approximately 100 days posttransplant) were discontinued from study treatment (i.e., HDP-CDV or placebo) and followed for a period of 4 weeks, while subjects who completed the treatment period were followed for a period of 8 weeks. After study treatment was discontinued, subjects were treated with PrT for CMV infection/disease.
Among the study population (N=230 subjects), subjects who received STOC for PrT, defined as receiving at least one of GCV, vGCV, FOS or IV CDV for the explicit treatment of CMV infection/disease during the follow-up (“FU”) period, were identified. […]
Baseline measures for clinical laboratory values were defined as the last value on or before the last day of study treatment. The maximal decrease in ANC was determined using the minimum value reported after the last day of study treatment. The maximal increase in serum creatinine was determined using the maximum value reported after the last day of study treatment. […]
AEs were counted if the onset day was after the last day of study treatment. […] P-values were determined using Fisher's exact test for binary data and an independent t-test (pooled) for continuous data.

[10] = 16 subjects, 100 mg BIW adults or 2 mg/kg BIW pediatrics

CCCCCCCCCCCCCCCCOCCCOP(=O)(O)COC(CO)Cn1ccc(N)nc1=O (centres unmarked) [HDP-CDV]
reduction of peak plasma concentration (Cmax) [1]: 48% | reduction of systemic exposure (AUCinf) [1]: 28% | systemic exposure, tablet lower than oral solution ([1]; po): about 13% | effect of hepatic impairment on percentage bound to plasma protein ([2]; human, in vivo): did not affect | need for dose adjustment in hepatic disease ([2]; moderate or severe hepatic disease): no HDP-CDV dose adjustment is warranted | ALT change [3]: dose-related increases in ALT which were quickly reversible after cessation of dosing | in vitro turnover [4]: low in vitro turnover | EC50 [5]: 7 nM | Reason for Premature Study Discontinuation: Death [6, 10]: 7 (44%) | Reasons for Premature HDP-CDV Treatment Discontinuation: Death [6, 10]: 4 (25%) | Reasons for Premature HDP-CDV Treatment Discontinuation: Other ([6]; 16 subjects, both completed the maximum 6 months treatment without resolution of CMV infection): 2 (13%)^i | Treatment-related Adverse Events: Colitis ([6]; human, in vivo): 1 (6%) No. of Subjects (%) | Treatment-related Adverse Events: Decreased appetite ([6]; human, in vivo): 1 (6%) No. of Subjects (%) | Treatment-related Adverse Events: Diarrhea ([6]; human, in vivo): 12 (75%) No. of Subjects (%) | Treatment-related Adverse Events: Flatulence ([6]; human, in vivo): 1 (6%) No. of Subjects (%) | Treatment-related Adverse Events: Liver function tests abnormal ([6]; human, in vivo): 3 (19%) No. of Subjects (%) | Treatment-related Adverse Events: Nausea ([6]; human, in vivo): 2 (13%) No. of Subjects (%) | Treatment-related Adverse Events: Neutropenia ([6]; human, in vivo): 1 (6%) No. of Subjects (%) | tolerability ([6]; in vivo): generally well-tolerated | Minor increases in ALT [7]: 2-5 fold | EC50 [8]: 0.4 nM | rate of preemption ([9]; 100 mg twice-weekly (11/50)): 22.0% | incidence of preemptive therapy with anti-CMV STOC ([9]; four cohorts ≧100 mg HDP-CDV per week (38 of 146)): 26.0%
